Reference: patent US12091426B2, “Bifunctional degraders of hematopoietic progenitor kinase and therapeutic uses thereof” (Nurix Therapeutics, Inc., priority 2021, dated 2024)

Biological target: T1, HPK1 (Homo sapiens, UniProt Q92918)
T1 construct: A HiBiT tag was introduced by CRISPR on the N terminus of HPK1 in Jurkat cells; host or cells: Jurkat cells (ATCC TIB-152), monoclonal line with CRISPR knock-in of HiBiT at the endogenous HPK1 locus
Test: HPK1 Cellular HiBit Degradation Assay
Format: cell-based
Details: HiBiT HPK1 Jurkat cells, 24 hrs; for DC50: concentration at which 50% of HPK1 was remaining, read-out: DC50 Category; for Dmax: Jurkat, read-out: Dmax Category
Procedure, shortened: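 Jurkat cells with CRISPR knock-in N-terminal HiBiT-HPK1 were treated with CTMs (11-point, 3.16-fold, 10 uM to 0.1 nM final) for 24 hrs at 37° C. HiBiT lytic luminescence, with parental Jurkat as background and DMSO as 100%, gave % HPK1 remaining; four-parameter fit yielded DC50 and Dmax (100 minus lowest % remaining).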

[1] = maximum degradation vs DMSO vehicle control

T1 sequence (Q92918 whole entry): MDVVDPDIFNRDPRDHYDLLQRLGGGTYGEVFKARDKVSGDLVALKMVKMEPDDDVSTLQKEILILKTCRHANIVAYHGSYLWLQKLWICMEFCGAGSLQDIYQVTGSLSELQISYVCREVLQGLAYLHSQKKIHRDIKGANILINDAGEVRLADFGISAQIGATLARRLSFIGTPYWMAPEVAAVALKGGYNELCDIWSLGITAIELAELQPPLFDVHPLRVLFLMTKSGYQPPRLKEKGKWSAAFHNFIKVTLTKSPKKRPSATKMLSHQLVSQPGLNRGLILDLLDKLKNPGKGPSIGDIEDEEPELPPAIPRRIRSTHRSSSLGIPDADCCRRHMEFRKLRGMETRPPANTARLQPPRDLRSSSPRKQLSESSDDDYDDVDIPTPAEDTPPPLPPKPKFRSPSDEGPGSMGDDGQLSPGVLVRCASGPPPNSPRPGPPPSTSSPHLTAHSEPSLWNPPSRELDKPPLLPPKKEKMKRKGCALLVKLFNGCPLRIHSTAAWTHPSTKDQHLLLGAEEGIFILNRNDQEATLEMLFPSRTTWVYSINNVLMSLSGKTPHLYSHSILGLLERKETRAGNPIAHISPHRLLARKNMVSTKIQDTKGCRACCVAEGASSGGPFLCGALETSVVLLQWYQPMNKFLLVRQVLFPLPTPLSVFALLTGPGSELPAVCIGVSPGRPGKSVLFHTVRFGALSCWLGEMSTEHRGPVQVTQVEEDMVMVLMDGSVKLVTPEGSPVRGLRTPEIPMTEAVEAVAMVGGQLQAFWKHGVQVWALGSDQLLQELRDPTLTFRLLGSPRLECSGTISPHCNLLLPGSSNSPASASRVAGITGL

Row | DC50 [nM] | Dmax [1] [%] | SMILES | Dmax Category [1]
1 | < 100 | > 85 | CC(C)n1cnc2cc(-c3ccc4c(c3)N([C@H]3C[C@@H](N5CCCCC5)C3)C(=O)C43CCN(C(=O)[C@@H]4CCN(C(=O)[C@H]5CC[C@H](Oc6ccc(C7CCC(=O)NC7=O)cn6)CC5)C4)CC3)nc(Nc3ccccc3F)c21 (mixture of isomers) [Example 17, (3RS)-3-(6-{1[(1R,4R)-4-[(3R)-3-[(6-{4-[(2-fluorophenyl)amino]-3-(propan-2-yl)-3H-imidazo[4,5-c]pyridin-6-yl}-2-oxo-1-[(1S,3S)-3-(piperidin-1-yl)cyclobutyl]-1,2-dihydrospiro[indole-3,4′-piperidin]-1′-yl)carbonyl]pyrrolidine-1-carbonyl]cyclohexyl]oxy}pyridin-3-yl)piperidine-2,6-dione] | –
2 | < 100 | > 85 | CC(C)n1cnc2cc(-c3ccc4c(c3)N([C@H]3C[C@@H](N5CCCCC5)C3)C(=O)C43CCN(C(=O)C4CCN(C(=O)C5CCN(c6ccc(C7CCC(=O)NC7=O)cn6)CC5)CC4)CC3)nc(Nc3ccccc3F)c21 (mixture of isomers) [Example 74, (3RS)-3-[6-(4-{4-[(6-{4-[(2-fluorophenyl)amino]-3-(propan-2-yl)-3H-imidazo[4,5-c]pyridin-6-yl}-2-oxo-1-[(1S,3S)-3-(piperidin-1-yl)cyclobutyl]-1,2-dihydrospiro[indole-3,4′-piperidin]-1′-yl)carbonyl]piperidine-1-carbonyl}piperidin-1-yl)pyridin-3-yl]piperidine-2,6-dione] | –
3 | < 100 | 70 to 85 | CC(C)n1cnc2cc(-c3ccc4c(c3)N([C@H]3C[C@@H](N5CCCCC5)C3)C(=O)C43CCN(C(=O)[C@@H]4CCN(C(=O)C5CCN(c6ccc(N7CCC(=O)NC7=O)cc6)CC5)C4)CC3)nc(NC3CC3)c21 [Example 233, 1-(4-{4-[(3R)-3-({6-[4-(cyclopropylamino)-3-(propan-2-yl)-3H-imidazo[4,5-c]pyridin-6-yl]-2-oxo-1-[(1S,3S)-3-(piperidin-1-yl)cyclobutyl]-1,2-dihydrospiro[indole-3,4′-piperidin]-1′-yl}carbonyl)pyrrolidine-1-carbonyl]piperidin-1-yl}phenyl)-1,3-diazinane-2,4-dione] | –
4 | < 100 | 70 to 85 | CC(C)n1cnc2cc(-c3ccc4c(c3)N([C@H]3C[C@@H](N5CCCCC5)C3)C(=O)C43CCN(C(=O)C4(C)CCN(C(=O)C5C6CCC5CN(c5ccc(N7CCC(=O)NC7=O)cn5)C6)CC4)CC3)nc(NC3CC3)c21 (stereo partly shown) [Example 155] | –
5 | 500 to 1000 | 70 to 85 | CC(C)n1cnc2cc(-c3ccc4c(c3)N([C@H]3C[C@@H](N5CCCCC5)C3)C(=O)C43CCN(C(=O)[C@@H]4CCN(C(=O)[C@H]5CC[C@H](Nc6cncc(C7CCC(=O)NC7=O)c6)CC5)C4)CC3)nc(Nc3ccccc3F)c21 (mixture of isomers) [Example 12, (3RS)-3-(5-{[(1R,4R)-4-[(3R)-3-[(6-{4-[(2-fluorophenyl)amino]-3-(propan-2-yl)-3H-imidazo[4,5-c]pyridin-6-yl}-2-oxo-1-[(1S,3S)-3-(piperidin-1-yl)cyclobutyl]-1,2-dihydrospiro[indole-3,4′-piperidin]-1′-yl)carbonyl]pyrrolidine-1-carbonyl]cyclohexyl]amino}pyridin-3-yl)piperidine-2,6-dione] | –
6 | 100 to 500 | 70 to 85 | CC(C)n1cnc2cc(-c3ccc4c(c3)N([C@H]3C[C@@H](N5CCCCC5)C3)C(=O)C43CCN(C(=O)C4CCN(C(=O)C5CCN(c6ccc7c(c6)C(=O)N(C6CCC(=O)NC6=O)C7=O)CC5)CC4)CC3)nc(NC3CC3)c21 (mixture of isomers) [Example 86, 5-{4-[4-({6-[4-(cyclopropylamino)-3-(propan-2-yl)-3H-imidazo[4,5-c]pyridin-6-yl]-2-oxo-1-[(1S,3S)-3-(piperidin-1-yl)cyclobutyl]-1,2-dihydrospiro[indole-3,4′-piperidin]-1′-yl}carbonyl)piperidine-1-carbonyl]piperidin-1-yl}-2-[(3RS)-2,6-dioxopiperidin-3-yl]-2,3-dihydro-1H-isoindole-1,3-dione] | –
7 | 100 to 500 | 70 to 85 | CC(C)n1cnc2cc(-c3ccc4c(c3)N([C@H]3C[C@@H](N5CCCCC5)C3)C(=O)C43CCN(C(=O)[C@H]4CC[C@H](CNC(=O)C5CCN(c6ccc(C7CCC(=O)NC7=O)cn6)CC5)CC4)CC3)nc(NC3CC3)c21 (mixture of isomers) [Example 291, 1-{5-[(3RS)-2,6-dioxopiperidin-3-yl]pyridin-2-yl}-N-{[(1R,4R)-4-({6-[4-(cyclopropylamino)-3-(propan-2-yl)-3H-imidazo[4,5-c]pyridin-6-yl]-2-oxo-1-[(1S,3S)-3-(piperidin-1-yl)cyclobutyl]-1,2-dihydrospiro[indole-3,4′-piperidin]-1′-yl}carbonyl)cyclohexyl]methyl}piperidine-4-carboxamide] | –
8 | 100 to 500 | 70 to 85 | CC(C)n1cnc2cc(-c3ccc4c(c3)N([C@H]3C[C@@H](N5CCCCC5)C3)C(=O)C43CCN(C(=O)c4ccc(CN5CCN(C(=O)C6CCN(c7ccc(C8CCC(=O)NC8=O)cn7)CC6)CC5)cc4)CC3)nc(NC3CC3)c21 (mixture of isomers) [Example 293, (3RS)-3-{6-[4-(4-{[4-({6-[4-(cyclopropylamino)-3-(propan-2-yl)-3H-imidazo[4,5-c]pyridin-6-yl]-2-oxo-1-[(1S,3S)-3-(piperidin-1-yl)cyclobutyl]-1,2-dihydrospiro[indole-3,4′-piperidin]-1′-yl}carbonyl)phenyl]methyl}piperazine-1-carbonyl)piperidin-1-yl]pyridin-3-yl}piperidine-2,6-dione] | –
9 | < 100 | > 85 | CC(C)n1cnc2cc(-c3ccc4c(c3)N([C@H]3C[C@@H](N5CCCCC5)C3)C(=O)C43CCN(C(=O)C4(C)CCN(C(=O)C5CCN(c6ccc(C7CCC(=O)NC7=O)cn6)CC5)CC4)CC3)nc(Oc3ccccc3)c21 (stereo partly drawn) [Example 168, 3-(6-{4-[4-methyl-4-({2-oxo-6-[4-phenoxy-3-(propan-2-yl)-3H-imidazo[4,5-c]pyridin-6-yl]-1-[(1S,3S)-3-(piperidin-1-yl)cyclobutyl]-1,2-dihydrospiro[indole-3,4′-piperidin]-1′-yl}carbonyl)piperidine-1-carbonyl]piperidin-1-yl}pyridin-3-yl)piperidine-2,6-dione] | –
10 | 500 to 1000 | > 85 | CC(C)n1cnc2cc(-c3ccc4c(c3)N([C@H]3C[C@@H](N5CCCCC5)C3)C(=O)C43CCN(C(=O)C4CCN(CCC5CCN(c6ccc(C7CCC(=O)NC7=O)cn6)CC5)CC4)CC3)nc(Nc3ccccc3F)c21 (mixture of isomers) [Example 98, (3RS)-3-{6-[4-(2-{4-[(6-{4-[(2-fluorophenyl)amino]-3-(propan-2-yl)-3H-imidazo[4,5-c]pyridin-6-yl}-2-oxo-1-[(1S,3S)-3-(piperidin-1-yl)cyclobutyl]-1,2-dihydrospiro[indole-3,4′-piperidin]-1′-yl)carbonyl]piperidin-1-yl}ethyl)piperidin-1-yl]pyridin-3-yl}piperidine-2,6-dione] | –
11 | 100 to 500 | > 85 | CC(C)n1cnc2cc(-c3ccc4c(c3)N([C@H]3C[C@@H](N5CCCCC5)C3)C(=O)C43CCN(C(=O)[C@]4(C)CCN(C(=O)C5CCN(c6ccc(C7CCC(=O)NC7=O)cc6F)CC5)C4)CC3)nc(NC3CC3)c21 (mixture of isomers) [Example 147, (3RS)-3-(4-{4-[(3R)-3-({6-[4-(cyclopropylamino)-3-(propan-2-yl)-3H-imidazo[4,5-c]pyridin-6-yl]-2-oxo-1-[(1S,3S)-3-(piperidin-1-yl)cyclobutyl]-1,2-dihydrospiro[indole-3,4′-piperidin]-1′-yl}carbonyl)-3-methylpyrrolidine-1-carbonyl]piperidin-1-yl}-3-fluorophenyl)piperidine-2,6-dione] | –
12 | 500 to 1000 | 50 to 70 | Cc1cc(C(=O)N2CCC3(CC2)C(=O)N([C@H]2C[C@@H](N4CCCCC4)C2)c2cc(-c4cc5ncn(C(C)C)c5c(Nc5ccccc5F)n4)ccc23)ccc1C(=O)N1CCN(c2ccc3c(c2)C(=O)N(C2CCC(=O)NC2=O)C3=O)CC1 (mixture of isomers) [Example 125, 2-[(3RS)-2,6-dioxopiperidin-3-yl]-5-(4-{4-[(6-{4-[(2-fluorophenyl)amino]-3-(propan-2-yl)-3H-imidazo[4,5-c]pyridin-6-yl}-2-oxo-1-[(1S,3S)-3-(piperidin-1-yl)cyclobutyl]-1,2-dihydrospiro[indole-3,4′-piperidin]-1′-yl)carbonyl]-2-methylbenzoyl}piperazin-1-yl)-2,3-dihydro-1H-isoindole-1,3-dione] | –

Row | SMILES | DC50 [nM] | Dmax [1] [%] | Dmax Category [1]
13 | CC(C)n1cnc2cc(-c3ccc4c(c3)N([C@H]3C[C@@H](N5CCCCC5)C3)C(=O)C43CCN(C(=O)C4(C)CCN(C(=O)C5CCN(c6ccc([C@H]7CCC(=O)NC7=O)cn6)CC5)CC4)CC3)nc(NC3CC3)c21 [Example 213, (3R)-3-(6-{4-[4-({6-[4-(cyclopropylamino)-3-(propan-2-yl)-3H-imidazo[4,5-c]pyridin-6-yl]-2-oxo-1-[(1S,3S)-3-(piperidin-1-yl)cyclobutyl]-1,2-dihydrospiro[indole-3,4′-piperidin]-1′-yl}carbonyl)-4-methylpiperidine-1-carbonyl]piperidin-1-yl}pyridin-3-yl)piperidine-2,6-dione] | < 100 | – | B (B: >70%-<85%)
14 | CC(C)n1cnc2cc(-c3ccc4c(c3)N([C@H]3C[C@@H](N5CCCCC5)C3)C(=O)C43CCN(C(=O)C4C5CCC4CN(C(=O)C4CCN(c6ccc(C7CCC(=O)NC7=O)cn6)CC4)C5)CC3)nc(NC3CC3)c21 (mixture of isomers) [Example 284, (3RS)-3-(6-{4-[8-({6-[4-(cyclopropylamino)-3-(propan-2-yl)-3H-imidazo[4,5-c]pyridin-6-yl]-2-oxo-1-[(1S,3S)-3-(piperidin-1-yl)cyclobutyl]-1,2-dihydrospiro[indole-3,4′-piperidin]-1′-yl}carbonyl)-3-azabicyclo[3.2.1]Octane-3-carbonyl]piperidin-1-yl}pyridin-3-yl)piperidine-2,6-dione] | < 100 | 70 to 85 | –
